Data as given in the supplement of paper PMC11451515.

Test system: P12-Ichikawa
Experiment: cell viability relative to DMSO control; higher = less cytotoxic
Details: 48 h
How it was run: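 Viability, reported as a per-plate percentage of DMSO wells with cell-free wells as background, came from CellTiter-Glo One luminescence. Reading took place after 48 h at 37°C. Before that, NOMO1 or SEM (500 cells/well) or P12-Ichikawa (1000 cells/well) leukemia cells, adapted for at least four passages in each medium, were seeded in 1536-well plates (5 μl) and pin-dosed with library compounds in DMSO, 47 μM to 0.79 nM over 11 threefold points.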

[1] = HPLM + 10% dialyzed FBS, 0.000781 µM
[2] = HPLM + 10% dialyzed FBS, 0.00234 µM
[3] = HPLM + 10% dialyzed FBS, 0.00702 µM
[4] = HPLM + 10% dialyzed FBS, 0.0211 µM
[5] = HPLM + 10% dialyzed FBS, 0.0632 µM
[6] = HPLM + 10% dialyzed FBS, 0.19 µM
[7] = HPLM + 10% dialyzed FBS, 0.569 µM
[8] = HPLM + 10% dialyzed FBS, 1.71 µM
[9] = HPLM + 10% dialyzed FBS, 5.12 µM
[10] = HPLM + 10% dialyzed FBS, 15.4 µM
[11] = HPLM + 10% dialyzed FBS, 46.1 µM
[12] = RPMI 5 mM glucose + 10% FBS, 0.000781 µM
[13] = RPMI 5 mM glucose + 10% FBS, 0.00234 µM
[14] = RPMI 5 mM glucose + 10% FBS, 0.00702 µM
[15] = RPMI 5 mM glucose + 10% FBS, 0.0211 µM
[16] = RPMI 5 mM glucose + 10% FBS, 0.0632 µM
[17] = RPMI 5 mM glucose + 10% FBS, 0.19 µM
[18] = RPMI 5 mM glucose + 10% FBS, 0.569 µM
[19] = RPMI 5 mM glucose + 10% FBS, 1.71 µM
[20] = RPMI 5 mM glucose + 10% FBS, 5.12 µM
[21] = RPMI 5 mM glucose + 10% FBS, 15.4 µM
[22] = RPMI 5 mM glucose + 10% FBS, 46.1 µM
[23] = RPMI 5 mM glucose + 10% dialyzed FBS, 0.000781 µM
[24] = RPMI 5 mM glucose + 10% dialyzed FBS, 0.00234 µM
[25] = RPMI 5 mM glucose + 10% dialyzed FBS, 0.00702 µM
[26] = RPMI 5 mM glucose + 10% dialyzed FBS, 0.0211 µM
[27] = RPMI 5 mM glucose + 10% dialyzed FBS, 0.0632 µM
[28] = RPMI 5 mM glucose + 10% dialyzed FBS, 0.19 µM
[29] = RPMI 5 mM glucose + 10% dialyzed FBS, 0.569 µM
[30] = RPMI 5 mM glucose + 10% dialyzed FBS, 1.71 µM
[31] = RPMI 5 mM glucose + 10% dialyzed FBS, 5.12 µM
[32] = RPMI 5 mM glucose + 10% dialyzed FBS, 15.4 µM
[33] = RPMI 5 mM glucose + 10% dialyzed FBS, 46.1 µM

| SMILES | cell viability [1] | cell viability [2] | cell viability [3] | cell viability [4] | cell viability [5] | cell viability [6] | cell viability [7] | cell viability [8] | cell viability [9] | cell viability [10] | cell viability [11] | cell viability [12] | cell viability [13] | cell viability [14] | cell viability [15] | cell viability [16] | cell viability [17] | cell viability [18] | cell viability [19] | cell viability [20] | cell viability [21] | cell viability [22] | cell viability [23] | cell viability [24] | cell viability [25] | cell viability [26] | cell viability [27] | cell viability [28] | cell viability [29] | cell viability [30] | cell viability [31] | cell viability [32] | cell viability [33] |
| --- | --- | --- | --- | --- | --- | --- | --- | --- | --- | --- | --- | --- | --- | --- | --- | --- | --- | --- | --- | --- | --- | --- | --- | --- | --- | --- | --- | --- | --- | --- | --- | --- | --- |
| Cc1ccc([N+](=O)[O-])cc1[S+](=O)([O-])N(C)/N=C/c1cnc2ccc(Br)cn12 | 120% | 110% | 113% | 118% | 108% | 50.1% | 20.2% | 7.63% | 9.25% | 9.2% | 4.27% | 114% | 106% | 112% | 113% | 95.6% | 40.9% | 15.2% | 5.49% | 6.55% | 8.88% | 3.76% | 119% | 122% | 111% | 115% | 91.3% | 51% | 24.6% | 9.55% | 10.3% | 12.4% | 5.41% |
| COc1ccc(C(CN(C)C)C2(O)CCCCC2)cc1 (centres undefined) | 111% | 106% | 108% | 107% | 115% | 114% | 95.3% | 96.5% | 106% | 98.2% | 108% | 116% | 115% | 134% | 151% | 120% | 91.1% | 81.8% | 97% | 106% | 85.7% | 109% | 98.4% | 111% | 109% | 103% | 120% | 106% | 105% | 106% | 101% | 91.5% | 97.1% |
| CCOC(=O)N1c2ccc(C(F)(F)F)cc2[C@@H](N(Cc2cc(C(F)(F)F)cc(C(F)(F)F)c2)C(=O)OC)C[C@H]1CC | 127% | 120% | 116% | 119% | 119% | 114% | 121% | 110% | 116% | 110% | 106% | 131% | 123% | 122% | 132% | 133% | 116% | 127% | 121% | 124% | 103% | 111% | 115% | 128% | 117% | 118% | 120% | 127% | 121% | 114% | 123% | 112% | 104% |
